Measurements from ChEMBL document CHEMBL1201862, “PubChem BioAssay data set” (2004).
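Dose response: 5 concentrations. Exposure: 48 h. Format: 96-well plates. Endpoint: linear interpolation; highest concentration if not reached. GI50 marks 50% less growth.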 Calls of active or inactive are those of the source. Cut-off read from the data, not from the text of the source: active = GI50 up to about 1.1 µM and inactive = higher.

Columns and labels:
Assay in all cases: DTP human tumour cell line panel, 48 h
KM12 = tested on: KM12
CCRF-CEM = tested on: CCRF-CEM
RPMI-8226 = tested on: RPMI-8226
UO-31 = tested on: UO-31
OVCAR-4 = tested on: OVCAR-4
HT-29 = tested on: HT-29
A549 = tested on: A549
786-0 = tested on: 786-0
SF-295 = tested on: SF-295
Malme-3M = tested on: Malme-3M
OVCAR-5 = tested on: OVCAR-5
M14 = tested on: M14
LOX IMVI = tested on: LOX IMVI
MOLT-4 = tested on: MOLT-4
HCT-116 = tested on: HCT-116
DMS-114 = tested on: DMS-114
ACHN = tested on: ACHN
SR = tested on: SR
U-251 = tested on: U-251
OVCAR-3 = tested on: OVCAR-3
SK-MEL-2 = tested on: SK-MEL-2
A498 = tested on: A498
OVCAR-8 = tested on: OVCAR-8
KM-20L2 = tested on: KM-20L2
NCI-H460 = tested on: NCI-H460
EKVX = tested on: EKVX
M19-MEL = tested on: M19-MEL
DMS-273 = tested on: DMS-273
HOP-62 = tested on: HOP-62
NCI-H23 = tested on: NCI-H23
SK-MEL-28 = tested on: SK-MEL-28
IGROV-1 = tested on: IGROV-1
SN12C = tested on: SN12C
SK-MEL-5 = tested on: SK-MEL-5
SNB-78 = tested on: SNB-78
HL-60 = tested on: HL-60
HCT-15 = tested on: HCT-15
COLO 205 = tested on: COLO 205
SNB-75 = tested on: SNB-75
LXFL 529 = tested on: LXFL 529
NCI-H226 = tested on: NCI-H226
DLD-1 = tested on: DLD-1
SK-OV-3 = tested on: SK-OV-3
UACC-62 = tested on: UACC-62
NCI-H522 = tested on: NCI-H522
TK-10 = tested on: TK-10
SF-539 = tested on: SF-539
HOP-92 = tested on: HOP-92
UACC-257 = tested on: UACC-257
SF-268 = tested on: SF-268
CAKI-1 = tested on: CAKI-1
RXF 393 = tested on: RXF 393
K562 = tested on: K562
SW-620 = tested on: SW-620
SNB-19 = tested on: SNB-19
XF498 = tested on: XF498
HCC 2998 = tested on: HCC 2998

Measured: GI50

CCn1c(SC(C)C(=O)c2c(C)n(C)n(-c3ccccc3)c2=O)nc2ccccc2c1=O (stereo not drawn)
inactive: KM12 > 100 µM | CCRF-CEM > 100 µM | RPMI-8226 95.1 µM | UO-31 > 100 µM | OVCAR-4 > 100 µM | HT-29 > 100 µM | A549 > 100 µM | 786-0 > 100 µM | SF-295 > 100 µM | Malme-3M > 100 µM | OVCAR-5 > 100 µM | M14 > 100 µM | LOX IMVI > 100 µM | MOLT-4 > 100 µM | HCT-116 > 100 µM | DMS-114 > 100 µM | ACHN > 100 µM | SR > 100 µM | U-251 > 100 µM | OVCAR-3 > 100 µM | SK-MEL-2 > 100 µM | A498 > 100 µM | OVCAR-8 > 100 µM | KM-20L2 > 100 µM | NCI-H460 > 100 µM | EKVX 36.4 µM | M19-MEL > 100 µM | DMS-273 > 100 µM | HOP-62 > 100 µM | NCI-H23 > 100 µM | SK-MEL-28 > 100 µM | IGROV-1 > 100 µM | SN12C > 100 µM | SK-MEL-5 > 100 µM | SNB-78 > 100 µM | HL-60 > 100 µM | COLO 205 > 100 µM | SNB-75 > 100 µM | LXFL 529 > 100 µM | NCI-H226 > 100 µM | DLD-1 > 100 µM | SK-OV-3 > 100 µM | UACC-62 > 100 µM | NCI-H522 84.1 µM | TK-10 > 100 µM | SF-539 > 100 µM | HOP-92 4.47 µM | UACC-257 > 100 µM | SF-268 > 100 µM
> 100 µM: HCT-15

COc1ccc(C(=O)O)c2c(=O)c3ccccc3[nH]c12
> 100 µM: HCT-15
inactive: KM12 > 100 µM | CCRF-CEM > 31.6 µM | RPMI-8226 > 100 µM | UO-31 > 100 µM | OVCAR-4 > 100 µM | HT-29 > 100 µM | A549 > 100 µM | 786-0 > 100 µM | CAKI-1 > 100 µM | SF-295 > 100 µM | Malme-3M > 100 µM | OVCAR-5 > 100 µM | M14 > 31.6 µM | LOX IMVI > 100 µM | MOLT-4 > 100 µM | HCT-116 > 100 µM | ACHN > 100 µM | SR > 100 µM | U-251 > 100 µM | OVCAR-3 > 10 µM | SK-MEL-2 > 100 µM | A498 > 100 µM | OVCAR-8 > 100 µM | KM-20L2 > 100 µM | RXF 393 > 100 µM | NCI-H460 > 100 µM | K562 > 100 µM | SW-620 > 100 µM | EKVX > 100 µM | M19-MEL > 100 µM | DMS-273 > 100 µM | HOP-62 > 31.6 µM | SNB-19 > 100 µM | NCI-H23 > 100 µM | SK-MEL-28 > 100 µM | XF498 > 100 µM | IGROV-1 > 100 µM | SN12C > 100 µM | HCC 2998 > 100 µM | SNB-78 > 100 µM | HL-60 > 100 µM | COLO 205 > 100 µM | LXFL 529 > 100 µM | NCI-H226 > 100 µM | SK-OV-3 > 100 µM | UACC-62 > 100 µM | NCI-H522 > 100 µM | TK-10 > 100 µM | SF-539 > 100 µM | HOP-92 > 100 µM | UACC-257 > 100 µM | SF-268 > 100 µM
